Test system: SlitOR5
Experiment: Single-sensillum recordings on Drosophila at1 olfactory neurons expressing SlitOR5
Format: cell-based, Spodoptera littoralis
Conditions: for significance of response versus solvent alone: n=7, Kruskal-Wallis ANOVA with Dunn's post-hoc test
Method: SlitOR5 can be heterologously expressed in vivo in an organism, for example Drosophila melanogaster, using transgenesis (e.g. the Gal4-UAS system in D. melanogaster). SlitOR5 can be expressed in a large part of the endogenous olfactory sensory neurons (OSNs) of the organism (for instance using the ORco promotor) or in a given subset of the OSN population. The modified responses of the antenna or of the targeted OSNs are then recorded using, respectively, electroantennography (EAG) and single sensillum recording (SSR). Some D. melanogaster mutant lines may be used to replace a native Drosophila OR with SlitOR5, such as the ab3A mutant line which allows for expression of SlitOR5 in ORNs usually expressing DmelOR22a (Hallem et al., Cell 2004, 117(7):965-979), and the DmelOr67dGAL4 mutant knock-in line, which allows for expression of SlitOR5 in place of DmelOR67d, in the unique OSN of the atl Drosophila sensilla (Kurtovic et al. Nature 2007, 446(7135):542-546). The candidate agent activity is measured as the antenna depolarization (EAG) or the number of action potential (SSR) generated by stimulation of an air flow containing the candidate agent (typically from 0.1 μg to 100 μg of the candidate agent loaded in the stimulation cartridge). Depolarization and action potential number are compared, respectively, to depolarization and action potential number generated by the agent solvent alone.
The transformant UAS-SlitOR5 balanced fly line was generated by BestGene Inc. (Chino Hills, Calif., USA), using the PhiC31 integrase system. Briefly, recombinant pUAST.attB-SlitOR5 plasmids were injected into embryos of a D. melanogaster line containing an attP insertion site within the second chromosome (genotype y1 M{vas-int.Dm}ZH-2A w*; M{3×P3-RFP.attP′}ZH-51C), leading to non-random integration. To drive expression of SlitOR5 in neurons housed in atl sensilla, the transformant UAS-SlitOR5 line was crossed to a line carrying the mutant knock-in allele Or67d^GAL4 (kindly provided by Dr. Barry Dickson, IMP, Vienna, Austria) to generate a double homozygous line w;UAS-SlitOr5;Or67d^GAL4. Flies were reared on standard cornmeal-yeast-agar medium and kept in a climate- and light-controlled environment (25° C., 12:12 light:dark cycle). The presence of the UAS-SlitO5 transgene was verified by PCR on genomic DNA extracted from two flies, and the expression of SlitOR5 in fly antennae was verified by RT-PCR on total RNA extracted from >100 pairs of antennae.
The response spectrum of SlitOR5 was tested by means of single-sensillum recordings on flies expressing the SlitOR5 transgene in atl neurons, instead of the endogenous receptor DmelOR67d. Two- to 10-day-old male flies were restrained in a plastic pipette tip with only the head protruding from the narrow end. The pipette tip was fixed with dental wax on a microscope glass slide with the ventral side of the fly facing upward. Then, the antenna was gently placed on a piece of glass slide and maintained by placing a glass capillary between the 2nd and 3rd antennal segments. Afterwards, the slides were placed under a light microscope (BX51WI, Olympus, Tokyo, Japan) equipped with a 100× magnification objective. Desiccation of the flies was avoided thanks to a constant 1.5 L·min^−1 flux of charcoal-filtered and humidified air, delivered through a glass tube of a 7 mm diameter, which terminated ca. 1.5 cm from the antenna.
Stimulation cartridges were built by placing a 1 cm^2 filter paper in the large opening end of a Pasteur pipette and dropping 10 μl of an odorant solution onto the paper before closing the pipette with a 1 mL plastic pipette tip. A screening panel of 26 pheromone compounds (see Table 1 for detail) were used at a 1 μg/μl dilution in hexane (10 μg deposited on the filter paper). Pipettes with filter papers containing 10 μL of solvent were used as controls. […]

[1] = response spectrum screen, 10 μg loaded in the stimulus cartridge

CCCC/C=C\CCCCCCCCOC(C)=O [Z9-14:OAc, (Z)-9-tetradecenyl acetate]
significance of response versus solvent alone [1]: not significant

CC/C=C/C=C\CCCCCCCCOC(C)=O [Z9,E11-14:OAc, (Z,E)-9,11-tetradecadienyl acetate]
response of at1 neurons (firing rate), dose-response (dose 1 μg loaded on the stimulus cartridge, n=5): 15 spikes·s^−1
response of at1 neurons (firing rate), dose-response (dose 10 μg loaded on the stimulus cartridge, n=5): 43 spikes·s^−1
mean net response (firing rate) of SlitOR5-expressing neurons (response spectrum screen, 10 μg loaded in the stimulus cartridge, 500 ms air pulse, n=7, w;UAS-SlitOr5;Or67d^GAL4 flies): 75 spikes·s^−1
significance of response versus solvent alone [1]: significant response
response of at1 neurons versus solvent alone, dose-response (the two lower doses (dose range 0.01 μg to 10 μg), n=5): did not significantly differ

CC/C=C\C=C/CCCCCCCCOC(C)=O [Z9,Z11-14:OAc, (Z,Z)-9,11-tetradecadienyl acetate]
significance of response versus solvent alone [1]: not significant

CC/C=C\CCCCCCCCOC(C)=O [Z9-12:OAc, (Z)-9-dodecenyl acetate]
significance of response versus solvent alone [1]: not significant

Reference: US20190169669A1, “[…] OF […] IDENTIFICATION OF NATURAL LIGAND OF SAID RECEPTOR AND USES THEREOF” (Institut National de la Recherche Agronomique, priority 2016, published 2019)
